In ChEMBL document CHEMBL1649500, “GS-9191 is a novel topical prodrug of the nucleotide analog 9-(2-phosphonylmethoxyethyl)guanine with antiproliferative activity and possible utility in the treatment of human papillomavirus lesions” (Antimicrob Agents Chemother, 2009):

Key:
[1] = Antiproliferative activity against human CK after 7 days by SRB assay
[2] = system: SiHa; test: Inhibition of DNA synthesis in HPV-transformed human SiHa cells assessed as decrease in BrdU incorporation after 3 hrs by ELISA; type: functional, cell-based
[3] = system: SCC-9; test: Antiproliferative activity against HPV-non-transformed human SCC9 cells after 7 days by SRB assay; type: functional, cell-based; conditions: SCC-9, 168 h
[4] = Antiproliferative activity against human PHK after 7 days by SRB assay
[5] = system: Ca-Ski; test: Antiproliferative activity against HPV-transformed human CaSki cells after 7 days by SRB assay; type: functional, cell-based; conditions: 168 h
[6] = Antiproliferative activity against PHF after 7 days by SRB assay; parameters: species or system Homo sapiens
[7] = system: SiHa; test: Inhibition of DNA synthesis in HPV-transformed human SiHa cells assessed as decrease in BrdU incorporation after 72 to 75 hrs by ELISA; type: functional, cell-based
[8] = system: SiHa; test: Inhibition of DNA synthesis in HPV-transformed human SiHa cells assessed as decrease in BrdU incorporation after 24 to 27 hrs by ELISA; type: functional, cell-based
[9] = system: SiHa; test: Inhibition of DNA synthesis in HPV-transformed human SiHa cells assessed as decrease in BrdU incorporation after 6 to 9 hrs by ELISA; type: functional, cell-based
[10] = Antiproliferative activity against HPV-transformed human C4I cells after 7 days by SRB assay; type: functional, cell-based; conditions: C-4I, 168 h
[11] = system: SiHa; test: Inhibition of DNA synthesis in HPV-transformed human SiHa cells assessed as decrease in BrdU incorporation after 3 to 6 hrs by ELISA; type: functional, cell-based
[12] = Antiproliferative activity against human lung fibroblast after 7 days by SRB assay; conditions: 168 h
[13] = system: ME-180; test: Antiproliferative activity against HPV-transformed human ME180 cells after 7 days by SRB assay; type: functional, cell-based; conditions: ME-180, 168 h
[14] = system: SiHa; test: Inhibition of DNA synthesis in HPV-transformed human SiHa cells assessed as decrease in BrdU incorporation after 48 to 51 hrs by ELISA; type: functional, cell-based
[15] = system: SiHa; test: Antiproliferative activity against HPV-transformed human SiHa cells after 7 days by SRB assay; type: functional, cell-based; conditions: 168 h
[16] = Antiproliferative activity against NHBE cells after 7 days by SRB assay; type: cell-based; conditions: Homo sapiens, 168 h
[17] = system: HT-3; test: Antiproliferative activity against HPV-non-transformed human HT3 cells after 7 days by SRB assay; type: functional, cell-based; conditions: HT-3, 168 h
[18] = system: HeLa; test: Antiproliferative activity against HPV-transformed human HeLa cells after 7 days by SRB assay; type: functional, cell-based; conditions: 168 h
[19] = system: SCC-4; test: Antiproliferative activity against HPV-non-transformed human SCC4 cells after 7 days by SRB assay; type: functional, cell-based; conditions: SCC-4, 168 h
[20] = Antiproliferative activity against HPV-transformed human MS751 cells after 7 days by SRB assay; type: functional, cell-based; conditions: MS751, 168 h
[21] = system: SiHa; test: Induction of apoptosis in HPV-transformed human SiHa cells assessed as viable cells at 180000 nM after 3 days by propidium iodide staining-based flow cytometry; type: functional; conditions: 72 h, read-out: Activity
[22] = system: SiHa; test: Induction of apoptosis in HPV-transformed human SiHa cells assessed as viable cells at 180000 nM after 7 days by propidium iodide staining-based flow cytometry; type: functional; conditions: 168 h, read-out: Activity
[23] = system: SiHa; test: Induction of apoptosis in HPV-transformed human SiHa cells assessed as apoptotic cells at 180000 nM after 3 days by propidium iodide staining-based flow cytometry; type: functional
[24] = system: SiHa; test: Induction of apoptosis in HPV-transformed human SiHa cells assessed as apoptotic cells at 180000 nM after 7 days by propidium iodide staining-based flow cytometry; type: functional
[25] = system: SiHa; test: Cell cycle arrest in HPV-transformed human SiHa cells assessed as accumulation at G0/G1 phase at 10 times EC50 after 48 hrs by flow cytometry; type: functional
[26] = system: SiHa; test: Cell cycle arrest in HPV-transformed human SiHa cells assessed as accumulation at S phase at 10 times EC50 after 48 hrs by flow cytometry; type: functional
[27] = Cell cycle arrest in human PHK cells assessed as accumulation at S phase at 10 times EC50 after 48 hrs by flow cytometry; type: cell-based
[28] = Cell cycle arrest in human PHK cells assessed as accumulation at G0/G1 phase at 10 times EC50 after 48 hrs by flow cytometry; type: cell-based
[29] = Cell cycle arrest in human PHK cells assessed as accumulation at G2/M phase at 10 times EC50 after 48 hrs by flow cytometry; type: cell-based
[30] = system: SiHa; test: Cell cycle arrest in HPV-transformed human SiHa cells assessed as accumulation at G2/M phase at 10 times EC50 after 48 hrs by flow cytometry; type: functional

| Structure (SMILES) | EC50 [1] [µM] | EC50 [2] [µM] | EC50 [3] [µM] | EC50 [4] [µM] | EC50 [5] [µM] | EC50 [6] [µM] | EC50 [7] [µM] | EC50 [8] [µM] | EC50 [9] [µM] | EC50 [10] [µM] | EC50 [11] [µM] | EC50 [12] [µM] | EC50 [13] [µM] | EC50 [14] [µM] | EC50 [15] [µM] | EC50 [16] [µM] | EC50 [17] [µM] | EC50 [18] [µM] | EC50 [19] [µM] | EC50 [20] [µM] | also measured |
| --- | --- | --- | --- | --- | --- | --- | --- | --- | --- | --- | --- | --- | --- | --- | --- | --- | --- | --- | --- | --- | --- |
| Nc1nc(NC2CC2)c2ncn(CCOCP(=O)(O)O)c2n1 | 1.38 | 8.84 | 10.1 | 3.7 | 1.41 | 12.7 | > 20 | 2.3 | 1.5 | 1.33 | 1.86 | 4.82 | 8.32 | 2.65 | 0.29 | 2.3 | 7.04 | 6.93 | 1.43 | 3.31 | – |
| Nc1ccn(C[C@@H](CO)OCP(=O)(O)O)c(=O)n1.O.O [CIDOFOVIR] | 51.7 | – | > 100 | 14.4 | > 100 | > 100 | – | – | – | 3.1 | – | 23.5 | 64.7 | – | > 100 | 31.9 | > 100 | > 100 | > 100 | > 100 | viability at 180 µM [21]: 98.1%; viability at 180 µM [22]: 62.2%; Activity [23]: 1.6%; Activity [24]: 37.2% |
| Nc1nc2c(ncn2CCOCP(=O)(O)O)c(=O)[nH]1 [GS-438] | > 100 | 8.97 | 3.15 | 0.55 | 5.53 | 1.58 | 10.1 | 3.63 | 2.58 | 0.47 | 3.04 | 0.29 | 2.57 | 6.02 | 0.21 | 0.67 | 1.93 | 2.16 | 0.16 | 2.8 | – |
| COc1cc([C@@H]2c3cc4c(cc3[C@H](O)[C@H]3COC(=O)[C@H]23)OCO4)cc(OC)c1OC [PODOFILOX] | – | – | – | – | – | – | – | – | – | – | – | – | – | – | – | – | – | – | – | – | Activity [25]: 20.4%; Activity [26]: 34.7%; Activity [27]: 16.7%; Activity [28]: 66.8%; Activity [29]: 16.5%; Activity [30]: 45% |
